Source: PMC12596218 (Journal of Lipid Research, 2025)
Where two headings read alike, the source gives them in different places.

Columns and labels:
[1] = cited from earlier work
[2] = target: T1, ASBT S294T/I295V (ASBT→mAsbt) (Homo sapiens, UniProt Q12908, I295V/S294T); assay: [3H]TC transport and inhibition assay, ASBT→mAsbt mutant in HEK293 cells; assay type: cell-based; settings: for Inhibition curve/AUC of ASBT→mAsbt mutant compared to wild-type ASBT: 1 μM [3H]TC, 10 min, AUC combined from two experiments
T1 construct: stably transfected with the full open reading frames of human NTCP, ASBT, SOAT, OATP1B1, OATP1B3, OATP2B1, and murine Asbt (mAsbt); expressed in transfected cells; host or cells: HEK293, stably transfected
T1 sequence (Q12908 1-348 S294T/I295V): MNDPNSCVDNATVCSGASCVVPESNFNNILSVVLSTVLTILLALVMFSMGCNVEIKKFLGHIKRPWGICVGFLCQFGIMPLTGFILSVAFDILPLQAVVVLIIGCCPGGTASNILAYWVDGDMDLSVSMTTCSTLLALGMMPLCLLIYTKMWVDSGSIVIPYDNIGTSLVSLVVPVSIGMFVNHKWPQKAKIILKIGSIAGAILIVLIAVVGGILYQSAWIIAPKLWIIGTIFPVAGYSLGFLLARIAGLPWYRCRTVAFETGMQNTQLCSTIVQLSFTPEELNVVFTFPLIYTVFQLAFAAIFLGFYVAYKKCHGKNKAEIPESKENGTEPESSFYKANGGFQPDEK
Protocol: Amplification was performed on a peqSTAR XS PEQLAB PCR cycler (Peqlab) with Pfu DNA polymerase (M774A; Promega) in 18 cycles under the following conditions: initial denaturation for 2 min at 95°C, denaturation for 30 s at 95°C, annealing for 1 min at 55°C, extension for 8 min and 30 s at 72°C, final elongation for 10 min at 72°C and final hold at 4°C. After amplification, the products were digested with DpnI (ER1701; Thermo Fisher Scientific) for 1 h at 37°C and transformed into TOP10 chemically competent E. coli (Thermo Fisher Scientific). Plasmids were isolated using a GeneJET Plasmid Miniprep Kit (Thermo Fisher Scientific) according to the manufacturer's protocol, and the generated point mutations were verified by DNA sequencing (Seqlab Microsynth).
Cells were seeded onto poly-L-lysine-coated 96-well plates, induced with 1 μg/ml tetracycline, and grown to confluence over 72 h at 37°C. Then, cells were washed with tempered (37°C) phosphate-buffered saline (PBS, containing 137.0 mM NaCl, 2.7 mM KCl, 1.5 mM KH2PO4, and 7.3 mM Na2HPO4, at pH 7.4) and preincubated with 80 μl sodium transport buffer (STB, containing 142.9 mM NaCl, 4.7 mM KCl, 1.2 mM MgSO4, 1.2 mM KH2PO4, 1.8 mM CaCl2, and 20.0 mM HEPES, at pH 7.4) for 5 min at 37°C. For inhibition studies, the medium was replaced by 80 μl STB containing the respective inhibitor or solvent alone and cells were further incubated for 5 min at 37°C. Transport experiments were started by adding 20 μl of a 5-fold concentrated substrate solution (solved in STB). For transport experiments under sodium-free conditions the same buffer composition was used as for STB, but sodium chloride was substituted with equimolar concentrations of choline chloride as previously reported ([20], [24]). Transport experiments were stopped by washing twice with ice-cold PBS and the plates were kept cool on ice until adding the lysis buffer [1% sodium dodecyl sulfate (SDS) and 1 N NaOH]. Then, the cell-associated radioactivity of the respective tritium-labeled substrate or ligand was quantified by liquid scintillation counting using MicroScint-20 scintillation cocktail (Revvity) in a Packard Microplate Scintillation Counter TopCount NXT (Packard Instrument Company). For IC50 transport inhibition measurements, the mean uptake values measured in non-carrier-expressing HEK293 control cells were defined as 0% uptake control and were subtracted from all other values. Values from cells without inhibitor and solvent alone were set to 100%. Finally, all net transport data were expressed as uptake or binding as % of control. All transport or inhibition graphs were generated with GraphPad Prism 6 (GraphPad). Determination of half maximal inhibitory concentrations (IC50) was done by nonlinear regression analysis using the equation log (inhibitor) versus response—variable slope settings. All data points of the IC50 curves represent means ± SD of quadruplicate determinations. For Km measurements, BS uptake in the absence of sodium was regarded as carrier-independent unspecific uptake and was subtracted from the transport rates in the presence of sodium to obtain carrier-specific uptake rates (indicated as dashed lines). From the specific uptake rates, Michaelis Menten Km values were calculated by non-linear regression analysis.

CCCCC1(CCCC)CS(=O)(=O)c2ccc(N(C)C)cc2[C@@H](c2ccc(OCc3ccc(C[N+]45CCN(CC4)CC5)cc3)cc2)[C@H]1O [maralixibat]
Cmax, clinical drug concentration ([1]; 45 mg cohort study, fasted, ref EMA Livmarli assessment report variation): 1.62 ng/mL
Cmax, clinical drug concentration ([1]; 45 mg cohort study, fed, ref EMA Livmarli assessment report variation): 0.57 ng/mL

CCCCC1(CCCC)CN(c2ccccc2)c2cc(SC)c(OCC(=O)N[C@@H](C(=O)N[C@@H](CC)C(=O)O)c3ccc(O)cc3)cc2S(=O)(=O)N1 [odevixibat]
Cmax, clinical drug concentration ([1]; 120 μg/kg/day cohort study, ref FDA (URL EMA Bylvay product information)): Odevixibat clinical drug concentration in the 120 μg/kg/day cohort study: Cmax = 0.62 ng/ml.
Inhibition curve/AUC of ASBT→mAsbt mutant compared to wild-type ASBT [2]: not different

CCCC[C@]1(CC)CS(=O)(=O)c2cc(CNC(CC(=O)O)CC(=O)O)c(OC)cc2[C@@H](c2ccccc2)N1 [linerixibat]
Inhibition curve/AUC of ASBT→mAsbt mutant compared to wild-type ASBT [2]: significantly reduced the AUC values
Transport inhibition at highest substrate concentration ([2]; 500 μM [3H]TC): full transport inhibition
IC50 values at increasing substrate concentrations (in words) ([2]; [3H]TC 0.3-500 μM): remained quite stable

CCCCC1(CCCC)CS(=O)(=O)c2ccc(N(C)C)cc2[C@@H](c2ccc(OCCCC[N+]34CCN(CC3)CC4)cc2)[C@H]1O [SC-435]
Inhibition curve/AUC of ASBT→mAsbt mutant compared to wild-type ASBT [2]: this effect was also observed

CCCCC1(CCCC)CN(c2ccccc2)c2cc(SC)c(OCC(=O)N[C@@H](C(=O)NCC(=O)O)c3ccccc3)cc2S(=O)(=O)C1 [elobixibat]
Cmax, clinical drug concentration ([1]; 15 mg cohort study, ref PMDA Goofice report): Elobixibat clinical drug concentration in the 15 mg cohort study: Cmax = 0.39 ng/ml.
Inhibition curve/AUC of ASBT→mAsbt mutant compared to wild-type ASBT [2]: not different
